Source: patent US12458688B2, “Epitopes” (Scancell Limited, priority 2018, dated 2025)

Experiments:
[1] = test system: B16HHDII/iDP4 tumour cells; assay: Tumour therapy, B16HHDII/iDP4 tumour in HHDII/DP4 mice; format: in vivo, mouse; conditions: peptide with CpG/MPLA
Description: For tumour challenge experiments, mice were challenged with B16F1 cells s.c. on the right flank 3 days before primary immunisation (unless stated otherwise) and subsequently immunised as above. Tumour implants were carried out at dose of 2.5×10^4 cells/mouse for B16F1, 2.5×10^4 cells/mouse for B16F1 DR4, 4×10^5 cells/mouse for B16F1 HHDII/DP4, 5×10^5 cells/mouse for B16 HHDII/DR1, 1×10^5 cells/mouse for B16F1 HHDII/inducibleDP4, 5×10^4 cells/mouse for B16F1 inducible DR4. For studies involving depletion antibodies, 250 μg anti-mouse Ly6C antibody (clone Monts, BioXcell) was administered i.p. on days 8, 10, 12, 15, 17 and 19. 400 μg anti-mouse Ly6G antibody (clone 1A8, Biolegend) was administered i.p. on day 8 followed by 250 μg on days 11, 15 and 18. Anti-human CD4 antibody (clone OKT4, BioXcell) or anti-mouse CD8 antibody (clone 2.43, BioXcell) were administered at 500 μg dose on day 4 followed by 300 μg dose on days 8 and 11. Tumour growth was monitored twice weekly and mice were humanely euthanised once tumour reached ≥15 mm in diameter.
To provide further evidence for the role of CD4 T cell responses in tumour therapy HHDII/DP4 mice were implanted with B16HHDII/iDP4 tumour cells on day 1 and then immunised with peptides and CpG/MPLA on days 4, 8 and 11. Concurrent with peptide immunisation mice were also treated with CD4 or CD8 depleting antibody and tumour growth monitored. […] To show whether cyanate/isocyanic acid can cross cell membranes B16F1 melanoma cell line was cultured in vitro in the presence or absence of potassium cyanate which is in dynamic equilibrium with isocyanic acid. As a positive control lysates were also produced from in vitro cultured B16F1 cells and then treated with or without KCNO.

HLA-HHDII/DP4 mice = assay: Ex vivo IFNγ ELISpot after peptide immunisation, HHDII/DP4 mice; format: in vivo, mouse; conditions: for IFNγ ELISpot response: 3 immunisations with CpG/MPLA, day 21
Description: C57BL/6 mice (Charles River, UK), HLA-DR4 mice (Model #4149, Taconic, USA), HLA-A2/DR1 (HHDII/DR1, Pasteur Institute), HLA-A2.1+/+HLA-DP4+/+hCD4+/+ (HLA-HHDII/DP4) transgenic mice (EM: 02221, European Mouse Mutant Archive) described in patent WO2013/017545 A1 (EMMA repository, France) were used, aged between 8 and 12 weeks. Peptides were dissolved in PBS to 1 mg/ml and then emulsified (a series of dilutions) with CpG ODN 1826 and MPLA 6 μg/mouse of each (Invivogen, UK). Peptides (25 μg/mouse) were injected subcutaneously at the base of the tail. Mice were immunised at days 1, 7 and 14 for peptide immunisation. Spleens were removed for analysis at day 21 unless stated otherwise.
ELISpot assays were performed using murine IFNγ, IL-17 and IL-10 capture and detection reagents according to the manufacturer's instructions (Mabtech, Sweden). In brief, anti-IFNγ, IL-17 and IL-10 specific antibodies were coated onto wells of 96-well Immobilin-P plate. Synthetic peptides (at various concentrations) and 5×10^5 per well splenocytes were added to wells of the plate in quadruplicate Tumour target cells were added where relevant at 5×10^4/well in triplicate and plates incubated for 40 hrs at 37° C. After incubation, captured IFNγ, IL-10 and IL-17 were detected by biotinylated anti-IFNγ, IL-10 and IL-17 antibodies and developed with a streptavidin alkaline phosphatase and chromogenic substrate. Lipopolysaccharide (LPS; 5 μg/ml) was used as a positive control. For MHC blocking studies, anti-CD4 blocking antibody (GK1.5) or anti-CD4 blocking antibody (RPA-T4) for HHDII/DP4 mice which express human CD4 and anti-CD8 blocking antibody (2.43) from Bioxcell were used at 20 μg/ml. Spots were analysed and counted using an automated plate reader (Cellular Technologies Ltd).
Screening was performed to identify potential homocitrullinated ALDOA epitopes in transgenic HHDII/DP4 and HHDII/DR1 mice. Mice were immunised with pools of human homocitrullinated peptides. […] Each pool was administered as three immunisations containing 20 μg of each peptide and CpG/MPLA as an adjuvant. After 21 days the mice were culled and the immune responses to each peptide within the immunising pool were assessed by ex vivo ELISpot in HHDII/DP4 (FIG. 4b) and HHDII/DR1 mice (FIG. 4d). […] Our predictions therefore identified 3/5 peptides which could induce a T cell response. […] Of the responding peptides ALDOA 74-93 Hcit and 140-157 Hcit peptides are homologous in human and mice therefore these two peptides were selected for further investigation. Minimal IL-10 (FIG. 6b) or IL-17 (FIG. 6c) responses were seen to Aldolase peptides in HHDII/DP4 mice.
Using this combination of predictions, 5 CyK8 peptides containing homocitrulline were synthesised (Table 4). Screening was performed to identify potential homocitrullinated Cyk8 epitopes in transgenic HHDII/DP4. Mice were immunised with pools of human homocitrullinated peptides. […] Each pool was administered as three immunisations containing 20 μg of each peptide and CpG/MPLA as an adjuvant. After 21 days the mice were culled and the immune responses to each peptide within the immunising pool were assessed by ex vivo ELISpot in HHDII/DP4 (FIG. 10a). […] The responses to CyK8 101-120 Hcit, 112-131 Hcit, 182-201 Hcit, 371-388 Hcit and 381-399 Hcit immunisation were characterised for cross reactivity to the wt peptide sequence. […] Thus a key characteristic of immunogenic peptides is they express homocitrulline. All of these peptides (100%) were immunogenic. Thus a high predicted HLA-DP4 binding affinity (<30), the presence of homocitrulline residues in the core region, the peptide being amphipathic in nature with a predominantely spiral conformational structure upon 3D modelling, and the existence of homology between the mouse and human sequences defines immunogenicity. When this model was applied retrospectively to include the vimentin and ALDOA peptides 8/9 (88%) were correctly predicted. […]

HLA-DP4 (human) [2] = biological target: HLA-DP4 (human)
Sequence of HLA-DP4 (human) (P20036 29-260, chain 1 of 2): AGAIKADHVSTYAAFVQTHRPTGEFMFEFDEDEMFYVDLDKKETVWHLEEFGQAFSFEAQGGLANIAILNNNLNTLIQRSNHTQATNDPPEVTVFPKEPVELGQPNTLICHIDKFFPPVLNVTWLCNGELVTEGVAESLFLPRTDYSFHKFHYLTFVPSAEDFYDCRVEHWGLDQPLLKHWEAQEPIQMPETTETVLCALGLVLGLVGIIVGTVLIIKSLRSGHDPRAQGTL
Sequence of HLA-DP4 (human) (P04440 30-258, chain 2 of 2, further chain): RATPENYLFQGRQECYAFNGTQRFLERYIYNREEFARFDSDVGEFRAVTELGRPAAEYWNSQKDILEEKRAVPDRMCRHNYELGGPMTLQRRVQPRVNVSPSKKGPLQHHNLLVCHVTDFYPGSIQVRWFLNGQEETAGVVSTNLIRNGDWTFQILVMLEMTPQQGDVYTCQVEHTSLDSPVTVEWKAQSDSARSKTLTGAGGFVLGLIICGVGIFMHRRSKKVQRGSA

HLA-DP4 (human) [3] = assay: DP4 competition ELISA; competitor biotinylated Hep B peptide; 10 ug unlabelled against 10 ug biotinylated Hep B
[4] = splenocytes after 7 days culture

## RNELESYAYSL-Hcit-NQIGD-Hcit- [BiP 562-579 Hcit]
[1]
  tumour growth / survival vs control: Significant prevention of tumour growth
HLA-HHDII/DP4 mice
  cross reactivity of Hcit response to wt peptide: significantly higher
  IFNγ ELISpot response: stimulation of IFNγ responses
HLA-HHDII/DP4 mice; [4]
  IFNγ response in presence of CD4 blocking antibody: loss of response

## Biotinylated Hep B 181-192 peptide
HLA-DP4 (human) [2]
  OD: 0.85 OD (450 nm)

## A-Hcit-FINYV-Hcit-NCFRMTDQEAIQDL [NPM 266-287 Hcit]
[1]
  tumour growth / survival vs control: Significant prevention of tumour growth
HLA-HHDII/DP4 mice
  cross reactivity of Hcit response to wt peptide: significantly higher
  IFNγ ELISpot response: stimulation of IFNγ responses
HLA-HHDII/DP4 mice; [4]
  IFNγ response in presence of CD8 blocking antibody: lost

## Hep B 181-192 peptide (unlabelled)
HLA-DP4 (human) [3]
  % inhibition: 47%

## GSHAGN-Hcit-LAMQEFMILPVGAA [Alpha enolase 156-176 Hcit]
[1]
  tumour growth / survival vs control: Significant prevention of tumour growth
HLA-HHDII/DP4 mice
  IFNγ ELISpot response: stimulation of IFNγ responses
HLA-HHDII/DP4 mice; [4]
  IFNγ response in presence of CD4 blocking antibody: lost

## FSLADAINTEF-Hcit-NTRTNE-Hcit-VELQ [Vimentin 86-108 Hcit]
[1]
  tumour growth / survival vs control: Significant prevention of tumour growth
HLA-HHDII/DP4 mice
  IFNγ ELISpot response: stimulation of IFNγ responses
HLA-HHDII/DP4 mice; [4]
  IFNγ response in presence of CD4 blocking antibody: loss of response
